The numbers were not newly measured in PMC11768433 (Viruses, 2024), which cites them from elsewhere.

Where two headings read alike, the source gives them in different places. Bounds are passed on as bounds.

The subject of data set [1] is Vero cells. The arrangement: method as in Ref.18572274. The following applies: up to 500 μM, ref Ref.18572274.
The subject of data set [2] is Vero cells. The arrangement: method as in Ref.35055066. The following applies: ref Ref.35055066.
Another data set concerns P4-CCR5 cells. Also noted: method as in Ref.15780876. The settings on record: ref Ref.15780876.
Another data set relates to HSV-2. Also noted: method as in Ref.35216177. The following applies: HSV-2 replication, Vero cells; ref Ref.35216177.
The subject of the next data set is HCoV-229E. The arrangement: method as in Ref.35216177. The following applies: HCoV-229E replication, Vero cells; ref Ref.35216177.
The subject of a further data set is HSV-1. Also noted: method as in Ref.35216177. The following applies: HSV-1 replication, Vero cells; ref Ref.35216177.
The test system of another data set is HCoV-OC43. The arrangement: method as in Ref.35216177. The following applies: HCoV-OC43 replication, Vero cells; ref Ref.35216177.
The subject of another data set is SARS-CoV-2. Also noted: method as in Ref.35216177. The following applies: SARS-CoV-2 replication, Vero cells; ref Ref.35216177.
For data set [3], the system named is Vero cells. Also noted: method as in Ref.35216177. The following applies: ref Ref.35216177.
The test system of the next data set is HPIV-3. Also noted: method as in Ref.35216177. The settings on record: HPIV-3 replication, Vero cells; ref Ref.35216177.
Data set [4] deals with Human endocervical cells End1/E6E7. The arrangement: method as in Ref.26026377. The settings on record: ref Ref.26026377.
The test system of the next data set is MT-4 cell. The arrangement: method as in Ref.30089693. The settings on record: ref Ref.30089693.
In another data set the test system is TZM-bl cell. The arrangement: method as in Ref.30089693. The settings on record: ref Ref.30089693.
A further data set relates to H9 cells. Also noted: method as in Ref.12480936. The following applies: up to 50 μM, ref Ref.12480936.
For the next data set, the system named is Huh7.5.1 cells. Also noted: method as in Ref.22378192. The following applies: ref Ref.22378192.
Another data set deals with hepatitis C virus(HCVpp). The arrangement: method as in Ref.20156485. The following applies: Huh-7 human hepatoma cells, ref Ref.20156485.
A further data set has as its system Huh-7 cells. Also noted: method as in Ref.20156485. The following applies: ref Ref.20156485.
The test system of data set [5] is Human parainfluenza viruse 3(HPIV 3). The arrangement: method as in Ref.28344321. The following applies: HPIV 3 infection, Vero cells; ref Ref.28344321.
The subject of data set [6] is Vero cells. Also noted: method as in Ref.28344321. The following applies: ref Ref.28344321.

Regarding “AAHLIDALYAEFLGGRVLTTPVVHRALFYASAVLRQPFLAGVPSA [DRAVPe01422]”, the “cytotoxicity” value with Vero cells [1] was “[Ref.18572274]No cytotoxicity against Vero cells up to 500 μM”.
In the case of “AIGSILGALAKGLPTLISWIKNR [DRAVPe00469, DRAVP database peptide AR-23]”, the CC50 in the data set on Vero cells [2] was 25 µM.
For the substance “ALWKTLLKKVLKAAAK [DRAVPe01957, DRAVP database peptide, target HIV]”, the CC50 result in the data set on P4-CCR5 cells was “[Ref.15780876]P4-CCR5 cells:CC50>100 μM”.
As to “ALWMTLLKKVLKAAAKAALNAVLVGANA [DRAVPe01956, DRAVP database peptide, target HIV]”, in the data set on P4-CCR5 cells, the CC50 is 5.6 µM.
One may read the IC90 as the concentration at which the effect reaches the 90% level. As to “FVPWFSKFlKRIL [DRAVPe00383, DRAVP database entry, TL peptide]”, the IC90 in the data set with HSV-2 is 7.99 µM; with HCoV-229E, 50 µM; in the data set with HSV-1, 10.5 µM; with HCoV-OC43, 16.3 µM; with SARS-CoV-2 it was 12.9 µM; in the data set with HPIV-3, greater than 50 µM. For the same substance, the CC50 with Vero cells [3] was 22.32 µM.
With “FVPWFSKFlkRIL [DRAVPe00384, DRAVP database entry, TL peptide]”, the IC90 in the data set with HSV-2 was 12.5 µM; in the data set on HCoV-229E, 50 µM; in the data set with HSV-1, 12.7 µM; with HCoV-OC43, 29.2 µM; in the data set with SARS-CoV-2, 25.3 µM; with HPIV-3, greater than 50 µM. Further, in the data set on Vero cells [3], the CC50 was 45.92 µM.
As for GLASTLTRWAHYNALIRAF [DRAVPe01424], the “cytotoxicity” value in the data set with Vero cells [1] was “[Ref.18572274]No cytotoxicity against Vero cells up to 500 μM”.
For the substance “GLFKVLGSVAKHLLPHVAPVIAEKL [DRAVPe00356, DRAVP database peptide, target HIV]”, in [4], the “concentration at 50% cell death” value is 12.5 µM.
Turning to “GLFSVLGAVAKHVLPHVVPVIAEKL [DRAVPe00355, DRAVP database peptide, target HIV]”, in data set [4], the “concentration at 50% cell death” value is listed as 10 µM.
Turning to “GLLSVLGSVVKHVIPHVVPVIAEHL [DRAVPe00360, DRAVP database peptide, target HIV]”, the “concentration at 50% cell death” value in data set [4] is recorded as 12.5 µM.
IEELIKKSEEQQKKNEEELKKLEX [DRAVPe00656]: the CC50 in the data set on MT-4 cell is 164.47 µM; in the data set with TZM-bl cell, 193.63 µM; in the data set with PBMC (PBMC, ref Ref.30089693), 46.43 µM.
With “KPKQIKPPLPSV [DRAVPe00130, DRAVP database peptide, target HIV-1 Vif proteins]”, the “cytotoxicity” value with H9 cells was “[Ref.12480936]No significant cytotoxicity on H9 cells up to 50 μM”.
“LPLPAPSFHRTT [DRAVPe00128, DRAVP database peptide, target HIV-1 Vif proteins]”: the “cytotoxicity” value in the data set with H9 cells is “[Ref.12480936]No significant cytotoxicity on H9 cells up to 50 μM”.
On to “MANAGLQLLGFILAFLGW [DRAVPe01317, DRAVP database peptide, target HCV]”, for which the CC50 in the data set on Huh7.5.1 cells is given as ~200 Μm.
On to “SNQGGSPLPRSV [DRAVPe00127, DRAVP database peptide, target HIV-1 Vif proteins]”, for which the “cytotoxicity” value with H9 cells was “[Ref.12480936]No significant cytotoxicity on H9 cells up to 50 μM”.
As a reminder, the EC90 is the concentration at which the effect reaches the 90% level. Consider VSFAIKWEYVLLLFLL [DRAVPe01483], for which the EC90 with hepatitis C virus(HCVpp) was 14 ± 12 µM. The “cytotoxicity” value with Huh-7 cells was “[Ref.20156485]No cytotoxicity against Huh-7 cells”.
As for “XGSGSGVALDPIDIAnti-SIVLNKAKSDLEESKEWIRRSNGKLDSI [DRAVPe01796]”, in data set [5], the IC90 was 0.0001 ± 1e-07 µM. In the data set with Vero cells [6], the CC50 entry was “[Ref.28344321]Vero cells: CC50>10000 nM”.
Regarding “YTSLIEELIKKSEEQQKKNEEELKKLEX [DRAVPe00783]”, the CC50 with MT-4 cell was 138.37 µM; with TZM-bl cell, 106.4 µM; with PBMC, 40.01 µM.
Turning to “YTSLIHSLIEESQNQQEKNEQELLELDX [DRAVPe00782]”, the CC50 in the data set with MT-4 cell was 366.3 µM; with TZM-bl cell, 800.8 µM; with PBMC (PBMC, ref Ref.30089693), 212.6 µM.
